Measured values as given in patent US10563272B2, “Compositions comprising Metarhizium fungi and use thereof as a pesticide” (Cotton Research and Development Corporation, priority 2015, dated 2020).

Experiments:
[1] = test system: lacewings; experiment: Foliar spray trial on Bollgard II cotton, Norwood 2010-11 (Example 7): lacewings; format: in vivo, Chrysopa spp., Micromus tasmaniae; conditions: fipronil 62.5 mL/ha; for number of lacewings per meter: 1st spray, BC 667/DAT 511 0.50 L/ha; for number of lacewings per metre: 2nd spray, BC 667/DAT 511 0.5 L/ha
Method: The trial was conducted on commercial Bollgard II® cotton crops at Norwood near Moree, NSW from 5 Dec. 2010 to 19 Feb. 2011. The cotton was at the early squaring stage, when it was attractive to green mirids (Khan et al. 2004).
The study evaluated the efficacy of the following treatments against green mirids, green vegetable bugs and predatory insects: • 1. 500 mL/ha BC 667 spore in oil (1×10^7 spores/ml); • 2. 500 mL/ha DAT 511 spore in oil (1×10^7 spores/ml); • 3. 62.5 mL/ha Fipronil (conventional insecticide); and • 4. Unsprayed (control).
The treatment plots were arranged in a randomized complete block design with four replicates per treatment. Each replicated plot measured 0.5 ha. Foliar application of each treatment was made on 18 Jan. 2011 using a ground spray rig fitted with flat fan nozzles to achieve a droplet size of 80 250 μm. The treatment was applied in the mornings when temperature was between 20° C. and 28° C. The timing of treatment was based on an economic threshold of 0.5 green mirids per metre, the IPM guideline and recommendation by CottonLogic.
Pre-treatment counts of green mirid adults and nymphs, predatory beetles, predatory bugs, predatory lacewings and spiders were made by visual inspection of whole cotton plants. Both adults and nymphs of the beneficial insects were counted. Plants were assessed in randomly selected one-metre lengths of row of each treatment replicate (i.e. four metres per treatment). In all, two spray applications of each treatment were made. The first spray was made on 18 Jan. 2011. Post-treatment counts of the first spray application were taken 3, 7 and 14 days after treatment (DAT) (first spray). A second spray application was done on 1 Feb. 2011 when green mirid adults plus nymphs reached the threshold of 0.5 per metre. Post-treatment counts of the second spray application were taken 3, 7, 14, 21 and 28 DAT. Data are expressed as numbers of individuals of that species counted per metre for each treatment.

[2] = test system: green mirids; experiment: Rate trial on conventional cotton refuge crops, Undabri 2012 (Example 12): green mirids; format: in vivo, Creontiades dilutus; conditions: adults P<0.03, nymphs P<0.001
Method: This trial was conducted using commercial conventional cotton refuge crops at Undabri in Goondiwindi (28° 55'S, 150° 31′E) from 14 Feb. to 6 Mar. 2012.
The efficacy of the following treatments against green mirids, green vegetable bugs and predatory insects was assessed: • 1. 250 mL/ha DAT 511 spore in oil (1×10^7 spores/ml); • 2. 500 mL/ha DAT 511 spore in oil (1×10^7 spores/ml); • 3. 1 L/ha DAT 511 spore in oil (1×10^7 spores/ml); • 4. 62.5 mL/ha fipronil; and • 5. Unsprayed (negative control).
The plots were arranged in a randomized complete block design with three replicates per treatment. Each replicated plot measured 8 m (8 rows) wide and 250 m long.
Foliar applications of each treatment were made on 14 Feb. 2012 using a ground spray rig fitted with flat fan nozzles to achieve a droplet size of 200 μm. All insecticide formulations were water miscible. All treatments were applied using a spray volume of 100 L/ha. The untreated (negative control) plot was left unsprayed and the plot treated with synthetic insecticide received two applications similar to, and on the same date as, the plots treated with the fungus.
For each replicate, visual counts of adults and nymphs of green mirids, green vegetable bugs (GVB), apple dimpling bugs and predatory insects on whole cotton plants were made in a randomly selected 1 m length of row of cotton plants (i.e. 6 m per treatment). […]

[3] = test system: predatory beetles; experiment: Bollgard II cotton, Auscott-Togo 2012-13, Field 77 (Experiment 1): predatory beetles; format: in vivo, Coleoptera (Coccinellidae, Melyridae); conditions: 62.5 mL/ha
Method: (§1) Two separate trials (Experiment 1 in Field 77; Experiment 2 in Field 63) were conducted in Bollgard II cotton crops on a commercial cotton farm at Auscott-Togo near Narrabri, New South Wales from 11 Feb. to 5 Mar. 2013 (Field 77) and 19 Feb. to 6 Mar. 2013 (Field 63). The cotton used for each of the trials was at the late squaring to pod setting and maturation stages which was fairly attractive to green mirids.
(§2) In both trials, the efficacy of the following treatments against green mirids and predatory insects was evaluated: • 1. 250 mL/ha DAT 511 spore in oil (1×10^7 spores/ml); • 2. 500 mL/ha DAT 511 spore in oil (1×10^7 spores/ml); • 3. 1 L/ha DAT 511 spore in oil (1×10^7 spores/ml); • 4. 62.5 mL/ha of fipronil; and • 5. Unsprayed (negative control).
(§3) The treatment plots were arranged in a randomized complete block design with six replicates per treatment. Each replicated plot measured 40 m wide (40 rows) and 90 m long.
(§4) Foliar application of each treatment was made on 28 Feb. (for both green mirids and beneficial insects) and 13 Mar. 2012 (for beneficial insects alone) using a ground spray rig fitted with flat fan nozzles to achieve a droplet size of 200 μm. The treatment was applied during the mornings when temperatures were between 20° C. and 28° C. The timing of treatment was based on the IPM Guidelines and recommendations by CottonLogic to use an economic threshold of 0.5 green mirids per metre (Deutscher and Wilson 1999; Khan et al. 2004).
(§5) Pre-treatment counts of green mirid adults and nymphs, predatory beetles, predatory bugs, predatory lacewings and spiders were made by visual inspection of whole cotton plants. Both adults and nymphs of beneficial insects were counted. Plants were assessed in randomly selected one-metre lengths of row of each replicate (i.e. 6 m per treatment). Post-treatment counts were made 3, 7, 14 and 21 days after treatment. Data are expressed as numbers of green mirid adults and nymphs counted per metre for each treatment.

[4] = test system: predatory bugs; experiment: Bollgard II cotton, Auscott-Togo 2012-13, Field 63 (Experiment 2): predatory bugs; format: in vivo, Hemiptera (Nabidae, Lygaeidae, Pentatomidae); conditions: 62.5 mL/ha
Method: as §1, §2, §3, §4, §5

[5] = test system: predatory lacewings; experiment: Bollgard II cotton, Auscott-Togo 2012-13, Field 63 (Experiment 2): predatory lacewings; format: in vivo, Chrysopa spp., Micromus tasmaniae; conditions: 62.5 mL/ha
Method: as §1, §2, §3, §4, §5

With `N#Cc1nn(-c2c(Cl)cc(C(F)(F)F)cc2Cl)c(N)c1[S+]([O-])C(F)(F)F` (centres unmarked) [fipronil] the “number of lacewings per meter” value ([1]; 3 DAT) was 0.00 ± 0.00 a per meter, the “number of lacewings per meter” value ([1]; 7 DAT) was 0.00 ± 0.00 a per meter and the “number of lacewings per meter” value ([1]; 14 DAT) was 0.33 ± 0.33 a per meter. The “number of lacewings per meter” value ([1]; pre-spray counts 18 Jan. 2011) was 0.67 ± 0.33 a per meter, the “number of lacewings per metre” value ([1]; 3 DAT) was 0.33 ± 0.33a per metre and the “number of lacewings per metre” value ([1]; 7 DAT) was 0.67 ± 0.33a per metre. The “number of lacewings per metre” value ([1]; 14 DAT) was 0.67 ± 0.33a per metre, the “number of lacewings per metre” value ([1]; 21 DAT) was 1.67 ± 0.33a per metre and the “number of lacewings per metre” value ([1]; 28 DAT) was 1.33 ± 0.33a per metre. The “number of lacewings per metre” value ([1]; pre-spray counts 1 Feb. 2011) was 0.33 ± 0.33a per metre, the “green mirid adults and nymphs per metre versus unsprayed plots” value [2] was “Significantly fewer” and the “No. predatory beetles per meter” value ([3]; 3 DAT) was 1.33 ± 0.33 a per meter. For the same compound, the “No. predatory beetles per meter” value ([3]; 7 DAT) was 1.33 ± 0.33 a per meter, the “No. predatory beetles per meter” value ([3]; 14 DAT) was 1.00 ± 0.58 a per meter and the “No. predatory beetles per meter” value ([3]; 21 DAT) was 1.33 ± 0.33 b per meter. For the same compound, the “No. predatory beetles per meter” value ([3]; pre-spray counts) was 3.68 ± 0.33 a per meter, the “No. predatory bugs per meter” value ([4]; 3 DAT) was 0.00 ± 0.00 a per meter and the “No. predatory bugs per meter” value ([4]; 7 DAT) was 0.33 ± 0.33 a per meter. The “No. predatory bugs per meter” value ([4]; 14 DAT) was 0.00 ± 0.00 a per meter, the “No. predatory bugs per meter” value ([4]; 21 DAT) was 0.00 ± 0.00 a per meter and the “No. predatory bugs per meter” value ([4]; pre-spray counts) was 0.00 ± 0.00 a per meter. For the same compound, the “No. predatory lacewings per meter” value ([5]; 3 DAT) was 0.00 ± 0.00 a per meter, the “No. predatory lacewings per meter” value ([5]; 7 DAT) was 0.00 ± 0.00 a per meter and the “No. predatory lacewings per meter” value ([5]; 14 DAT) was 0.00 ± 0.00 a per meter. For the same compound, the “No. predatory lacewings per meter” value ([5]; 21 DAT) was 0.00 ± 0.00 a per meter and the “No. predatory lacewings per meter” value ([5]; pre-spray counts) was 0.67 ± 0.33 a per meter.
